Measurements as given in patent publication US20260294905A1, “USE OF PLURALITY OF COMPOUNDS IN PREPARATION OF DRUG FOR TREATING MYELOPROLIFERATIVE NEOPLASMS” (THE SECOND XIANGYA HOSPITAL OF CENTRAL SOUTH UNIVERSITY, priority 2022, published 2026).
Several values for one entry are separate records, joined by “and”; a condition that tells them apart may be missing. Identical values can stand only once. Entries after “also recorded” stand apart in the source; their conditions may differ.

Legend:
[1] = test system: HEL^RE cells (Ruxolitinib-resistant HEL); test: Annexin V-PI staining and flow cytometry, apoptosis of HEL^RE cells; type: cell-based, human; conditions: for average apoptosis rate of HEL-RE cells: 24 h; for promotion of apoptosis of HEL^RE cells (in words): 0.1-10 μM
Description: (§1) To detect the apoptosis-promoting effect of the inhibitors, HEL naïve cell strains were treated with Ruxolitinib and the compounds for 24 hours respectively (with concentrations of: 0, 0.1, 0.5, 1 μM or 0, 0.1, 0.3, 1, 3, 10 μM), and added with DMSO to make up to the same amount. 3 parallel replicate groups were set up, and cell apoptosis was detected by Annexin V and PI staining followed by flow cytometry.
(§2) A calculation formula of cell apoptosis rate was: cell apoptosis rate=the ratio of early apoptotic cells (Annexin V^+/PI^−)+the ratio of late apoptotic cells and necrotic cells (Annexin V^+/PI^+).
In order to detect the effects of compounds on the abilities of drug-resistant myeloproliferative neoplasm cells, the method was to treat HEL^RE with increasing concentrations of Ruxolitinib and the compounds, and to detect cell apoptosis by Annexin V and PI staining followed by flow cytometry.

[2] = test system: HEL cells (human erythroleukemia cell line); test: CellTiter-Lumi luminescence proliferation of naive HEL cells, 48 h; type: cell-based; conditions: for activity at 0.1 µM / activity at 0.3 µM / activity at 1 µM / activity at 3 µM / activity at 10 µM: vs DMSO control, read-out: average proliferation rate of HEL cells
Description: (§3) HELs (Human erythroleukemia cell lines) and Ruxolitinib-resistant HEL cells were both cultured in a RPMI medium (Gibco) containing 20% heat-inactivated fetal bovine serum (Gibco) and 1% penicillin/streptomycin.
(§4) Ruxolitinib and other compounds were all purchased from Selleck, dissolved in DMSO with a stock solution concentration of 10 mM, and cryopreserved at −80° C. The working solution was diluted to a specified multiple using a RPMI medium and then used for treating cells. Ruxolitinib was specifically ruxolitinib phosphate.
(§5) To detect the antiproliferative effect of the inhibitor, the aforementioned cell lines were cultured at 3,000 cells/100 μL of the system per well, added with increasing concentrations of Ruxolitinib (concentration gradients of HEL cells: 0, 0.1, 1, 2.5, 5 μM; or 0, 0.1, 0.3, 1, 3, 10 μM), and added with DMSO to make up to the same amount. 4 parallel replicate groups were set up, and 3 blank wells (wells containing culture media without cells) were set up.
(§6) A calculation formula of the cell proliferation rate was: cell proliferation rate=(Luminescence value of the group added with the drug-average Luminescence value of the blank wells)/(Luminescence value of the DMSO control group-average Luminescence value of the blank wells)×100%.
In order to detect the effects of the compounds on the proliferation abilities of drug-resistant myeloproliferative neoplasm cells, the method was to treat the HEL naïve cell lines with increasing concentrations of Ruxolitinib and the compounds respectively, and to detect the proliferation of the cells by a CellTiter-Lumi™ luminescence method.

[3] = test system: HEL cells (human erythroleukemia cell line); test: Annexin V-PI staining and flow cytometry, apoptosis of HEL cells, 24 h; type: cell-based
Description: • 1. the cell lines and inhibitors were the same as those in Example 1. • 2. detection of cell apoptosis
as §1, §2

[4] = test system: HEL^RE cells (Ruxolitinib-resistant HEL); test: CellTiter-Lumi luminescence proliferation of Ruxolitinib-resistant HEL^RE cells, 48 h; type: cell-based, human; conditions: for inhibition of proliferation of HEL^RE cells (in words): 0.1-10 μM; for activity at 0.1 µM / activity at 0.3 µM / activity at 1 µM / activity at 3 µM / activity at 10 µM: vs DMSO control, read-out: average proliferation rate of HEL^RE cells
Excerpt: as §3
A Ruxolitinib-resistant HEL model, i.e., a HEL^RE model, was constructed by starting the addition of Ruxolitinib at a concentration lower than the IC50 of naïve cells and slowly incrementing the concentration to a high concentration, and preventing the cells from being killed. Our starting concentration was 0.1 μM. The drug was added upon occurrence of cell proliferation. The drug addition gradient was an increment at a multiple of 1.25, and the final concentration was 2.0 μM. Stable drug-resistant cells were obtained after 4-6 weeks.
as §4, §5, §6
A method for evaluating whether the model was successfully constructed was to compare the IC50s of resistant cells and naïve cells.
In order to detect the effects of five compounds on the proliferation abilities of drug-resistant myeloproliferative neoplasm cells, the method was to treat HEL^RE with increasing concentrations of Ruxolitinib and the five compounds respectively, and to detect the proliferation of the cells by a CellTiter-Lumi™ luminescence method.

[5] = test system: myeloproliferative neoplasms patients; conditions: cited from earlier work; for side effects / safety in patients / effect on symptoms, clonal hematopoiesis, mutant gene load: clinical use
[6] = Homo sapiens, HEL^RE cells, 48 h

Structure (SMILES) | average apoptosis rate of HEL-RE cells ([1]; 0.1 μM) | average apoptosis rate of HEL-RE cells ([1]; 0.3 μM) | average apoptosis rate of HEL-RE cells ([1]; 1 μM) | average apoptosis rate of HEL-RE cells ([1]; 3 μM) | average apoptosis rate of HEL-RE cells ([1]; 10 μM) | activity at 0.1 µM ([2]; Homo sapiens, 48 h) | activity at 0.3 µM ([2]; Homo sapiens, 48 h) | activity at 1 µM ([2]; Homo sapiens, 48 h) | activity at 3 µM ([2]; Homo sapiens, 48 h) | activity at 10 µM ([2]; Homo sapiens, 48 h) | average apoptosis rate of HEL cells ([3]; 0.1 μM) | average apoptosis rate of HEL cells ([3]; 0.3 μM) | average apoptosis rate of HEL cells ([3]; 1 μM) | average apoptosis rate of HEL cells ([3]; 3 μM) | average apoptosis rate of HEL cells ([3]; 10 μM) | activity at 0.1 µM [4, 6] | activity at 0.3 µM [4, 6] | activity at 1 µM [4, 6] | activity at 3 µM [4, 6] | activity at 10 µM [4, 6] | further results
Cn1c(Nc2ccc(C(F)(F)F)cc2)nc2cc(Oc3ccnc(-c4ncc(C(F)(F)F)[nH]4)c3)ccc21 [RAF265] | 6.48±0.480% and 6.48% | 7.31±0.140% and 7.31% | 8.24±0.730% and 8.24% | 11.9±0.520% and 11.9% | 19.1±3.75% and 19.1% | 66.1 ± 4.71% | 45.2 ± 2.96% | 37 ± 2.18% | 30 ± 0.13% | 19.2 ± 0.99% | 7.24±1.30% and 7.24% | 7.19±0.400% and 7.19% | 8.11±0.260% and 8.11% | 10.7±1.22% and 10.7% | 12.8±1.44% and 12.8% | 92 ± 3.92% | 67.2 ± 3.7% | 35.8 ± 3.88% | 21.8 ± 1.48% | 3.45 ± 0.58% | promotion of apoptosis of HEL^RE cells (in words) [1]: could promote apoptosis of the HEL^RE cells, and this effect increased with increase in the drug concentration; also recorded: can promote the apoptosis of the HEL^RE cells; inhibition of proliferation of HEL cells (in words) ([2]; 0.1-10 μM): can successfully inhibit the proliferation of the HEL cells; also recorded: could inhibit the proliferation of the HEL cells, this effect was increased with the increase of the drug concentration; inhibitory effect on proliferation compared with Ruxolitinib ([2]; 0.1-10 μM): its inhibitory effect was better than that of Ruxolitinib; overall effectiveness among the compounds ([2]; proliferation and apoptosis taken together): more effective; effect on apoptosis compared with Ruxolitinib ([3]; 0.1-10 μM): its inhibitory effect was better than that of Ruxolitinib; promotion of apoptosis of HEL cells (in words) ([3]; 0.1-10 μM): could promote the apoptosis of the HEL cells, this effect was increased with the increase of the drug concentration; also recorded: can promote the apoptosis of the HEL cells; inhibition of proliferation of HEL^RE cells (in words) ([4]; HEL^RE cells): could inhibit the proliferation of the HEL^RE cells, and this effect increased with increase in the drug concentration; overall effectiveness among the compounds ([4]; HEL^RE cells, proliferation and apoptosis taken together): more effective
Cc1cnc(Nc2ccc(OCCN3CCCC3)cc2)nc1Nc1cccc(S(=O)(=O)NC(C)(C)C)c1 [Fedratinib] | – | – | – | – | – | – | – | – | – | – | – | – | – | – | – | – | – | – | – | – | side effects / safety in patients [5]: may cause encephalopathy, including the risk of Wernicke's encephalopathy
N#CC[C@H](C1CCCC1)n1cc(-c2ncnc3[nH]ccc23)cn1 [Ruxolitinib] | 12.4±0.540% and 12.4% | 13.0±1.03% and 13.0% | 10.8±1.02% and 10.8% | 10.2±0.880% and 10.2% | 10.6±1.33% and 10.6% | 80.9 ± 1.35% | 54.9 ± 4.35% | 42.7 ± 4.05% | 34.7 ± 1.14% | 29.4 ± 0.49% | 7.40±0.059% and 7.40% | 7.46±0.679% and 7.46% | 8.61±0.403% and 8.61% | 7.19±0.209% and 7.19% | 6.36±0.036% and 6.36% | 105 ± 2.08% | 105 ± 3.59% | 104 ± 9.46% | 109 ± 4.39% | 96 ± 3.69% | IC50 ([2]; Homo sapiens, 48 h, mean (95% confidence interval)): 2.31 µM; drug resistance index (ratio of IC50s of resistant and naive cells) ([4]; HEL^RE vs HEL cells, 2880 min): 19.0; IC50 ([4]; Homo sapiens, HEL^RE cells, 48 h, mean (95% confidence interval)): 44.7 µM; patients developing drug resistance ([5]; MF patients treated for 1 year, type I JAK inhibitors such as RUX): more than 40%; effect on symptoms, clonal hematopoiesis, mutant gene load [5]: cannot reduce the load of mutant genes; side effects / safety in patients [5]: more severe anemia; also recorded: bone marrow suppression as a common side effect; spleen volume and symptoms ([5]; intermediate- and high-risk MF and PV, Phase II and III trials, vs optimal therapy): can reduce the spleen volume and alleviate symptoms
NC(=O)NO [Hydroxyurea, hydroxyurea] | – | – | – | – | – | – | – | – | – | – | – | – | – | – | – | – | – | – | – | – | effect on symptoms, clonal hematopoiesis, mutant gene load [5]: can only relieve symptoms but cannot inhibit clonal hematopoiesis; side effects / safety in patients [5]: may increase the risks of myelodysplastic syndrome and acute myelogenous leukemia
Cc1ccc2c(Nc3cccc(Cl)c3F)nccc2c1NC(=O)c1csc2c(N)ncnc12 [Belvarafenib] | 5.55±0.440% and 5.55% | 5.40±0.570% and 5.40% | 5.71±0.260% and 5.71% | 6.05±0.430% and 6.05% | 7.13±0.450% and 7.13% | 98.9 ± 6.41% | 89.2 ± 4.68% | 98.2 ± 3.19% | 90.1 ± 4.72% | 87.3 ± 2.39% | 6.58±0.760% and 6.58% | 7.42±0.950% and 7.42% | 7.80±0.700% and 7.80% | 7.17±1.31% and 7.17% | 7.55±0.160% and 7.55% | 104 ± 6.13% | 92.4 ± 2.45% | 70.4% | 45.4 ± 2.33% | 31.1 ± 3.6% | promotion of apoptosis of HEL^RE cells (in words) [1]: could not promote apoptosis of the HEL^RE cells; inhibition of proliferation of HEL cells (in words) ([2]; 0.1-10 μM): could not inhibit the proliferation of the HEL cells; promotion of apoptosis of HEL cells (in words) ([3]; 0.1-10 μM): could not promote apoptosis of the HEL cells; inhibition of proliferation of HEL^RE cells (in words) ([4]; HEL^RE cells): could inhibit the proliferation of the HEL^RE cells, and this effect increased with increase in the drug concentration
